Measurements taken from PubChem BioAssay (NCI).
Where “and” joins values, the source holds several entries; their conditions need not be identical. Identical values can stand only once.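 Cultured in 96-well plates, cells were exposed to test compound for 48 hours across five concentrations. Here, GI50 denotes the concentration required for 50% inhibition of growth. TGI marks complete inhibition of growth.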

How the values were obtained:
Assay in all cases: DTP human tumour cell line panel, 48 h
IGROV1 ovarian = system: IGROV1 ovarian
CCRF-CEM leukemia = system: CCRF-CEM leukemia
BT-549 breast = system: BT-549 breast
HL-60(TB) leukemia = system: HL-60(TB) leukemia
ACHN renal = system: ACHN renal
OVCAR-4 ovarian = system: OVCAR-4 ovarian
MDA-MB-435 = system: MDA-MB-435
U251 CNS = system: U251 CNS
OVCAR-3 ovarian = system: OVCAR-3 ovarian
TK-10 renal = system: TK-10 renal

Compound	GI50 (IGROV1 ovarian)	TGI (IGROV1 ovarian) [µM]	GI50 (CCRF-CEM leukemia)	TGI (CCRF-CEM leukemia) [µM]	GI50 (BT-549 breast)	TGI (BT-549 breast)	GI50 (HL-60(TB) leukemia)	TGI (HL-60(TB) leukemia)	GI50 (ACHN renal)	TGI (ACHN renal) [µM]	GI50 (OVCAR-4 ovarian)	TGI (OVCAR-4 ovarian)	GI50 (MDA-MB-435)	TGI (MDA-MB-435)	GI50 (U251 CNS)	TGI (U251 CNS) [µM]	GI50 (OVCAR-3 ovarian)	TGI (OVCAR-3 ovarian)	GI50 (TK-10 renal)	TGI (TK-10 renal)
Cc1ccc(-c2nc3cc(Cl)c(Cl)cc3nc2C#N)cc1	> 100 µM	> 100	> 100 µM	> 100	> 100 µM	> 100 µM	> 100 µM	> 100 µM	39 µM	> 100	> 100 µM	> 100 µM	> 100 µM	> 100 µM	> 100 µM	> 100	> 100 µM	> 100 µM	49.2 µM	> 100 µM
Nc1nnnc2nc[nH]c12	4.75 µM	> 100	0.72 µM	> 100	1.03 µM	> 25.2 µM	1.92 µM	> 100 µM	1.08 µM	> 100	0.547 µM	> 100 µM	0.542 µM	2.57 µM	2.39 µM	> 100	2.53 µM	> 100 µM	0.5 µM	> 41.5 µM
C/C(=N/O)c1ccc2c(c1)/C(=N/O)c1ccccc1-2	22.3 µM	41.1	25.4 µM	62.6	21.4 µM	50.4 µM	15.8 µM	35.7 µM	20.6 µM	46.1	15.1 µM	45.4 µM	18.7 µM	39.4 µM	21.2 µM	46	25.5 µM	57.7 µM	26.7 µM	67.2 µM
Cc1ccc(NC(=O)Nc2c(Cl)cccc2Cl)cn1	8.14 µM	> 100	5.79 µM	> 100	59.1 µM	> 100 µM	4.23 µM	29.7 µM	51.5 µM	> 100	65 µM	> 100 µM	1.96 µM	4.69 µM	5.07 µM	> 100	4.5 µM	22.7 µM	18.1 µM	41.6 µM
NC1=NC(=O)/C(=C/c2ccc3ncccc3c2)S1	> 25 µM	> 25	> 25 µM	> 25	> 18.8 µM	> 25 µM	> 25 µM	> 25 µM	> 25 µM	> 25	> 25 µM	> 25 µM	> 10.9 µM	> 25 µM	> 25 µM	> 25	> 25 µM	> 25 µM	> 25 µM	> 25 µM
COC1=C(OC)C(=O)C(Sc2ccc3ccccc3c2)=CC1=O	–	39	–	4.31	–	22.5 µM	–	3.35 µM	–	23.6	–	48.5 µM	–	29.8 µM	–	21.4	–	32.7 µM	–	27 µM
COc1cccc(C2=C(c3cn(C)c4cc(F)ccc34)C(=O)NC2=O)c1	> 25 µM	> 25	9.63 µM	> 25	> 24 µM	> 25 µM	13.6 µM	> 25 µM	10.5 µM	> 25	> 8.37 µM	> 25 µM	11.7 µM	> 25 µM	> 17.2 µM	> 25	> 18.7 µM	> 25 µM	> 16.9 µM	> 25 µM
CC(c1ccccc1)[C@@H](C(=O)Nc1ccc(I)cc1F)N1C(=O)N[C@H](c2ccc(OC[C@H](O)CO)cc2)C1=O (stereo partly specified)	2.04 µM	> 25	14.3 µM	> 25	9.17 µM	> 23.7 µM	0.313 µM	> 25 µM	8.48 µM	> 25	8.97 µM	> 25 µM	0.0817 µM	> 25 µM	7.86 µM	> 25	> 21.3 µM	> 25 µM	4.86 µM	> 25 µM
CCCCCCCCCC(CCCC(O)CC(=O)O)OC1OC(COC2OC(C)C(OC(C)=O)C(O)C2O)C(O)C(O)C1OC1OC(CO)C(O)C(O)C1OC1OC(C)C(OC(=O)CC(C)C)C(O)C1O (stereo unspecified)	> 35 µM	> 35	> 35 µM	> 35	> 35 µM	> 35 µM	> 35 µM	> 35 µM	> 35 µM	> 35	> 35 µM	> 35 µM	> 35 µM	> 35 µM	> 35 µM	> 35	> 35 µM	> 35 µM	> 35 µM	> 35 µM
COc1ccc(C(=O)O[C@H]2[C@H](O[C@H]3[C@@H](O)COC(O[C@H]4C[C@H]5[C@@H]6CC=C7C[C@@H](O)CC[C@]7(C)[C@H]6CC[C@]5(C)[C@H]4[C@H](C)C(=O)CCC(C)C)[C@@H]3OC(C)=O)OC[C@@H](O)[C@@H]2O)c(C)c1 (stereo partly specified)	0.0723 µM	48.9	< 0.01 µM	0.13	< 0.01 µM	10.7 µM	0.0133 µM	28.2 µM	0.0312 µM	38.9	0.717 µM	> 100 µM	< 0.01 µM	0.0774 µM	< 0.01 µM	18.7	11.1 µM	28.9 µM	0.27 µM	34.8 µM
C[C@@H](NC(=O)c1ncnc(N)c1Cl)c1ncc(C(=O)Nc2cc(C(F)(F)F)c(Cl)cn2)s1	10.8 µM	39.6	25.4 µM	> 100	22.1 µM	81.2 µM	3.3 µM	29 µM	15.7 µM	> 100	20.7 µM	73.3 µM	2.27 µM	34.3 µM	19.5 µM	> 68.5	24.6 µM	70 µM	19.6 µM	46.6 µM
Cc1ccc(-c2nc(N3CCNCC3)c3oc(-c4ccccc4)nc3n2)cc1	1.87 µM	3.64	2.16 µM	4.79	13.8 µM	31.6 µM	1.43 µM	3.09 µM	1.75 µM	3.12	1.89 µM	4.06 µM	1.76 µM	3.22 µM	1.79 µM	3.24	1.96 µM	3.48 µM	1.68 µM	3.09 µM
CCCCCCCCCCCCCCCCCCOc1ccccc1CC(=O)OCC[N+](CC)(CC)CC	0.923 µM	1.97	1.48 µM	13.1	1.95 µM	9.22 µM	0.926 µM	2.78 µM	4.39 µM	11.3	1.75 µM	7.42 µM	1.55 µM	6.2 µM	1.24 µM	3.56	1.73 µM	6.33 µM	1.45 µM	7.65 µM
CCOc1ccc2c(c1)CN(Cc1ccc(Cl)cc1)CO2	23 µM	63.7	29.9 µM	98.5	17.6 µM	36.8 µM	19.2 µM	42.8 µM	19.3 µM	55	19.8 µM	50.3 µM	15.2 µM	29.5 µM	16.1 µM	33.2	21.6 µM	51.1 µM	19 µM	64.8 µM
CCN(CC)c1ccc2nc3c4ccccc4c(=O)cc-3n(-c3ccccc3)c2c1	0.62 µM	2.92	2.33 µM	7.72	1.95 µM	5.06 µM	0.273 µM	0.821 µM	2.13 µM	14.9	1.2 µM	15.1 µM	0.899 µM	3.46 µM	1.49 µM	6.61	1.16 µM	3.85 µM	1.77 µM	5.63 µM
O=C(Nc1ccccc1C(F)(F)F)c1ccc(NC2=C(Cl)C(=O)N(Cc3ccccc3)C2=O)cc1	19.3 µM	65.9	2.95 µM	12.7	24 µM	58.3 µM	2.96 µM	17.6 µM	33.7 µM	> 100	33.5 µM	> 100 µM	51.5 µM	> 100 µM	23.5 µM	> 100	13.1 µM	76.9 µM	17.6 µM	52.5 µM
COc1ccc(Cn2cc3c(c2)-c2oncc2CC3)cc1OC	0.391 µM	> 46.3	0.132 µM	–	0.344 µM	> 50 µM	0.126 µM	0.439 µM	0.325 µM	> 50	0.643 µM	> 50 µM	0.0774 µM	0.235 µM	0.211 µM	> 28.1	0.134 µM	0.35 µM	0.453 µM	> 50 µM
ClCc1ccc(Cn2cnc3c(Cl)ncnc32)cc1	13.6 µM	42	4.64 µM	> 48.8	21.9 µM	45.8 µM	10.1 µM	23.1 µM	4.04 µM	11.5	–	> 25.7 µM	13 µM	23.3 µM	6.4 µM	15.1	8.73 µM	18.5 µM	11.3 µM	23.6 µM
O=c1c2ccccc2nc(-c2ccccc2Cl)n1-c1nnc(C(F)(F)F)s1	4.17 µM	> 100	3.13 µM	40.7	3.36 µM	10.9 µM	2.38 µM	8.51 µM	3.74 µM	27.7	3.15 µM	> 100 µM	3.19 µM	53.1 µM	2.46 µM	12.9	3.25 µM	11.4 µM	3.99 µM	24 µM
COc1cccc(/C=C/c2ccnc3ccccc23)c1OC	–	> 10	–	> 10	–	> 10 µM	–	> 10 µM	–	> 10	–	> 10 µM	–	> 10 µM	–	> 10	–	> 10 µM	–	> 10 µM
Nc1cc(C(F)(F)F)c(-c2cc(N3CCOCC3)nc(N3CCOCC3)n2)cn1	0.227 µM and 0.28 µM	–	1.56 µM and 1.49 µM	> 100	0.558 µM and 0.727 µM	> 7.16 µM and 6.67 µM	0.615 µM and 0.455 µM	5.45 µM and 9.35 µM	0.906 µM and 1.14 µM	> 100	1.4 µM and 1.27 µM	> 9.01 µM and 29 µM	0.275 µM and 0.29 µM	1.03 µM and 1.32 µM	1.51 µM and 1.78 µM	> 25	0.919 µM and 1.03 µM	4.71 µM and 4.45 µM	0.303 µM and 0.338 µM	2.75 µM and 2.15 µM
CN(C)Cc1ccc(C(C)(C)C)cc1-c1cc(C(C)(C)C)ccc1CN(C)C	–	> 100	–	> 100	–	> 100 µM	–	> 100 µM	–	> 100	–	> 100 µM	–	> 100 µM	–	> 100	–	> 100 µM	–	> 100 µM
OCc1ccc(N2CCc3cc(F)ccc3C2)cc1Cl	0.017 µM	0.0941	3.9 µM	28.9	15.1 µM	28.7 µM	1.64 µM	29.1 µM	11.8 µM	24.4	0.0277 µM	0.354 µM	13.1 µM	27.6 µM	0.0933 µM	14	0.0518 µM	0.288 µM	–	0.0416 µM
O=C1c2ccccc2C(=O)c2c1ccc1c(=O)n(-c3ccccc3C(F)(F)F)nnc21	1.33 µM	3.31	2.03 µM	> 100	1.81 µM	6.8 µM	1.76 µM	5.48 µM	2.7 µM	> 100	1 µM	2.21 µM	1.66 µM	3.1 µM	2.66 µM	17.9	0.315 µM	1.42 µM	3.89 µM	> 100 µM
COc1ccc(-c2[nH]nc(N)c2-c2cc(OC)c3c(c2)OCO3)cc1	8.51 µM	70.5	3.47 µM	38.8	7.71 µM	> 100 µM	2.89 µM	10.3 µM	6.88 µM	> 100	12.9 µM	> 100 µM	0.559 µM	2.54 µM	4.29 µM	> 100	2.48 µM	6.05 µM	8.42 µM	60.1 µM
O=C(/C=C/C(Cl)(Cl)Cl)Nc1ccc(Cl)cc1	–	1.82	–	3.97	–	31.1 µM	–	2.03 µM	–	6.37	–	4.02 µM	–	12.4 µM	–	26.2	–	17.3 µM	–	5.73 µM
